Measurements reported in patent US20210330616A1, “AMELIORATING AGENT FOR OBESITY-RELATED METABOLIC DISEASE” (METABOLIC AND OBESE RESEARCH SCIENCE CORPORATION, priority 2018, published 2021).
Values joined by “and” are separate entries in the source; they are usually repeats but may differ in a detail not shown here. Identical values can stand only once. Counter-ions that a name gives are not always drawn. Like-named read-outs stand apart in the source and are kept apart here.

Experiments:
[1] = set-up: key to Body weight / Insulin resistance / Hyperglycemia / Hypertension / Blood LDLc / Blood HDLc / Fatty liver: ↓: lowering or mitigating action; ↑: increasing action; →: no change; conditions: cited from earlier work
Helz2 = biological target: T1, Helz2 (Homo sapiens, UniProt Q9BYK8); experiment: High-throughput screening through surface plasmon resonance for low-molecular-weight compounds that bind to Helz2; type: binding; conditions: purified Helz2 protein
T1 construct: 3xFLAG (N); made in house; host or cells: HEK293 cells
T1 sequence (Q9BYK8 whole entry): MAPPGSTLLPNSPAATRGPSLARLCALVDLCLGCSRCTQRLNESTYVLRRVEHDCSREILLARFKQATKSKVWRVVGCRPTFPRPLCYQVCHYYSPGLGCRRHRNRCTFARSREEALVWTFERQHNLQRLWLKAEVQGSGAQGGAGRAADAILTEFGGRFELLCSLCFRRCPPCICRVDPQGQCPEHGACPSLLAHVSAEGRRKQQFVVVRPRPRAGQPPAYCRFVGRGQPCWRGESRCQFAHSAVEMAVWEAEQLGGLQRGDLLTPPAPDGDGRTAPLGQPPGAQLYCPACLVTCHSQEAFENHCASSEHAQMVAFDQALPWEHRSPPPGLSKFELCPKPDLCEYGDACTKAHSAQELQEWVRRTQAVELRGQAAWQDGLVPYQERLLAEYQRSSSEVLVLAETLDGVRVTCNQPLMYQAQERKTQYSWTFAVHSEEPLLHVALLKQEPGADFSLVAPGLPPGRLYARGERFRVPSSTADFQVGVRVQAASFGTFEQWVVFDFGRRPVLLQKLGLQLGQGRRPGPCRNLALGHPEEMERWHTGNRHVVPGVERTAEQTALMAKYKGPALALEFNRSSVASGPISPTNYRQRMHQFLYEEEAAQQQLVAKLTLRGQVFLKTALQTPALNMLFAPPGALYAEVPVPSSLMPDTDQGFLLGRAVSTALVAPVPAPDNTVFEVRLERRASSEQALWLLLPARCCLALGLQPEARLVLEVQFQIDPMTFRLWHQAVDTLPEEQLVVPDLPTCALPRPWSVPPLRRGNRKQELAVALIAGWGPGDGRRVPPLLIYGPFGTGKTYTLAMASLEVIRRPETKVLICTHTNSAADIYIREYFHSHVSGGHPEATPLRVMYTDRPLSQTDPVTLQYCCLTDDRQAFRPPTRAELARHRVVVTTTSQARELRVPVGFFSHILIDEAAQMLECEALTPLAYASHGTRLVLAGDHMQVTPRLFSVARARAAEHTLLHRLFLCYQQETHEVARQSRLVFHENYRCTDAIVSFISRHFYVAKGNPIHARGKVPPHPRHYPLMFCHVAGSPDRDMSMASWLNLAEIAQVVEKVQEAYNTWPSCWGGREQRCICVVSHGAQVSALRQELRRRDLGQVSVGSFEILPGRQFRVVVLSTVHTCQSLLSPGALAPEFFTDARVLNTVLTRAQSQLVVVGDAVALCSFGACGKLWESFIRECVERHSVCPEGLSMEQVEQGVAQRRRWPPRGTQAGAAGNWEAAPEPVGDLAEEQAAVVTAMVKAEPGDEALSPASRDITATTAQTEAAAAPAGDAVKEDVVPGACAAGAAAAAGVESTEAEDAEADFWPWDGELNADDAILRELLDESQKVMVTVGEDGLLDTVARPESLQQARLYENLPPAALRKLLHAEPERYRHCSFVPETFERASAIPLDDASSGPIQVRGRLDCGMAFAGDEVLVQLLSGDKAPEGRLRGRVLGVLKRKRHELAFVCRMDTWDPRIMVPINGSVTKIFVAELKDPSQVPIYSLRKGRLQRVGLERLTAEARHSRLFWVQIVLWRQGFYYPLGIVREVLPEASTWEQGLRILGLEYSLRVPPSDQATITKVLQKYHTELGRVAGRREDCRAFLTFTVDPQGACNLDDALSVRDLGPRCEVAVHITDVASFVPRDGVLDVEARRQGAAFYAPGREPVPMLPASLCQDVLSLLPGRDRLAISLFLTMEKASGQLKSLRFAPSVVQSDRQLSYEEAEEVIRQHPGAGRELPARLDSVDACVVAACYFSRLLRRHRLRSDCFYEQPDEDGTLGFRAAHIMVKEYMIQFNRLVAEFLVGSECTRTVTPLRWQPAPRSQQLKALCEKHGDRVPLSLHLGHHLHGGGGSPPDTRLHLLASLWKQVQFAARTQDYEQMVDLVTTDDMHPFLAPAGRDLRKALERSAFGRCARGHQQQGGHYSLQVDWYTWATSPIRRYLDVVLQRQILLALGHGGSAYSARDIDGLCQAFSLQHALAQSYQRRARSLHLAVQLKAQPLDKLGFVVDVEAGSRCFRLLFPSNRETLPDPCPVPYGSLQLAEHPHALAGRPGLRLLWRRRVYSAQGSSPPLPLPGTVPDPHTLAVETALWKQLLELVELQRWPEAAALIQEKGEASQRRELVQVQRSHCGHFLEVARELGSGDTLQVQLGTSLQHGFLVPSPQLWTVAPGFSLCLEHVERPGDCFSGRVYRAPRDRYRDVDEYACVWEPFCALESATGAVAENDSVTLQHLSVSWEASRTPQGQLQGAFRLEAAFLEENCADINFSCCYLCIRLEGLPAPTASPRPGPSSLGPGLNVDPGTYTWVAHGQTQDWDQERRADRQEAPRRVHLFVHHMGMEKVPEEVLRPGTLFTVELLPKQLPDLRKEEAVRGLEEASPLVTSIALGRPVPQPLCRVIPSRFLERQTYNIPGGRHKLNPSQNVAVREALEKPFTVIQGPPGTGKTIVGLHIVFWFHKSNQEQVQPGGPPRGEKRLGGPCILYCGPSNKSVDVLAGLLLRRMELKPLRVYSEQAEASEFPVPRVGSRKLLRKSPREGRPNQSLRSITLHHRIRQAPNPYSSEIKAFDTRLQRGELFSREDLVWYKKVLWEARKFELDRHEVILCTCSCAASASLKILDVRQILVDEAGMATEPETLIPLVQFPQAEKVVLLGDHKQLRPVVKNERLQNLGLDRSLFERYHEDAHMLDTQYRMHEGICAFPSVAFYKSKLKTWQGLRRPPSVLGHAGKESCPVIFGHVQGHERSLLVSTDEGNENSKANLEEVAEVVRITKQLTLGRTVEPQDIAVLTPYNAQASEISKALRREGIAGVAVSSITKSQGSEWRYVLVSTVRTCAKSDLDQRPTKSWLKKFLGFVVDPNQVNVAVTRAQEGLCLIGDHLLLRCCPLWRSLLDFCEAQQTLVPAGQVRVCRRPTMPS
Text: 1. High-Throughput Screening for Low-Molecular-Weight Compounds that Bind to Helz2
HEK293 cells were allowed to express Helz2 by using a Helz2 expression vector (p3×FLAG-CMV10-pDIP2), and Helz2 protein was purified.

[2] = test system: obese mice fed high-fat diet; experiment: Weights of spleen and kidney after oral administration to obese mice; type: in vivo, mice (C57BL6J); conditions: 14-day oral administration, vs physiological saline
Experimental: (§1) Six-week-old male mice (C57BL6J) were grown with high-fat diet (fat content: 60 kcal %, Research diets, Inc.) or low-fat diet (fat content: 10.5 kcal %, CLEA Japan, Inc.) for 18 weeks. Thereafter, obese mice fed high-fat diet were separated into two groups, and 0.3 mL of physiological saline was orally administered to one group through a gastric tube for mouse, and 0.3 mL of a solution of a low-molecular-weight compound dissolved in physiological saline was orally administered to the other group through the gastric tube for mouse. Oral administration was performed every day over 14 days during 30 minutes before turning lights off at 18:00 (turning lights on at 6:00, 12-hour light-dark cycle, room temperature: 22° C.). […] Thereafter, the organs were stored at −80° C. Hepatic Leprb expression was measured by means of the qRT-PCR.
11. Change in Weights of Spleen and Kidney after Oral Administration of Low-Molecular-Weight Compound
The weights of the spleen and kidney after administration of physiological saline or administration of a low-molecular-weight compound were measured.

[3] = test system: obese mice fed high-fat diet; experiment: Insulin resistance and blood glucose level after oral administration to obese mice; type: in vivo, mice (C57BL6J); set-up: key to Insulin resistance / Hyperglycemia: ↓: lowering or mitigating action; ↑: increasing action; →: no change
Experimental: as §1
6. Change in Insulin Resistance and Blood Glucose Level after Oral Administration of Low-Molecular-Weight Compound
Fasting blood glucose and blood insulin concentration after administration of physiological saline or administration of a low-molecular-weight compound were measured respectively by using an enzyme-electrode method with glucose oxidase and a mouse insulin ELISA kit (Morinaga Institute of Biological Science, Inc.). The insulin resistance of each mouse was represented as Homeostatic model assessment of insulin resistance (HOMA-IR) [insulin (mU/L)×blood glucose (mM)÷22.5] index (×100) (Brit J Nutr 101: 701-708, 2009).

[4] = test system: obese mice fed high-fat diet; experiment: Blood lipid concentration after oral administration to obese mice; type: in vivo, mice (C57BL6J); set-up: key to Blood LDLc / Blood HDLc: ↓: lowering or mitigating action; ↑: increasing action; →: no change
Experimental: as §1
10. Change in Blood Lipid Concentration after Oral Administration of Low-Molecular-Weight Compound
Fasting blood CM-Tg, VLDL-Tg, LDLc, and HDLc concentrations after administration of physiological saline or administration of a low-molecular-weight compound were measured by using the LipoSEARCH method.

Hepatic Leprb expression = Hepatic Leprb expression with oral administration to obese mice; type: in vivo, mice (C57BL6J); conditions: 0.32 mg/kg/day oral, 14 days, vs physiological saline
Experimental: 3. Hepatic Leprb Expression with Oral Administration of Low-Molecular-Weight Compound
as §1

[5] = test system: obese mice fed high-fat diet; experiment: Weights of liver and heart after oral administration to obese mice; type: in vivo, mice (C57BL6J); conditions: 14-day oral administration, vs physiological saline
Experimental: as §1
9. Change in Weights of Liver and Heart after Oral Administration of Low-Molecular-Weight Compound
The weights of the liver and heart after administration of physiological saline or administration of a low-molecular-weight compound were measured.

[6] = test system: obese mice fed high-fat diet; experiment: Pancreatic weight and pancreatic β-cell function after oral administration to obese mice; type: in vivo, mice (C57BL6J); conditions: 14-day oral administration, vs physiological saline
Experimental: as §1
7. Change in Pancreatic Weight and Pancreatic β-Cell Function after Oral Administration of Low-Molecular-Weight Compound
Pancreatic weight after administration of physiological saline or administration of a low-molecular-weight compound was measured. The pancreatic β-cell function of each mouse was represented by Homeostatic model assessment-β cell function (HOMA-β) {[insulin (mU/L)×20]÷[blood glucose (mM)−3.5]} index (×100) (Brit J Nutr 101:701-708, 2009).

[7] = test system: obese mice fed high-fat diet; experiment: Hepatic lipid content after oral administration to obese mice (LipoSEARCH, BODIPY staining); type: in vivo, mice (C57BL6J); set-up: key to Fatty liver: ↓: lowering or mitigating action; ↑: increasing action; →: no change
Experimental: as §1
8. Change in Hepatic Lipid Content after Oral Administration of Low-Molecular-Weight Compound
Hepatic Tg and Chol contents after administration of physiological saline or administration of a low-molecular-weight compound were measured by using a LipoSEARCH method (Skylight Biotech, Inc.).
To visualize and quantify the amount of fat accumulated in hepatocyte per cell and change in shape of fat, fat globule fluorescent staining with BODIPY (excitation light: 493 nm; fluorescence: 503 nm) was performed. Staining-positive area and size of staining-positive cell were measured in 10 views per mouse hepatocyte in each group. ANOVA was used for intergroup significance test in FIGS. 8-D and 8-E (****. P<0.001).

[8] = test system: obese mice fed high-fat diet; experiment: Blood leptin concentration and food intake after oral administration to obese mice; type: in vivo, mice (C57BL6J)
Experimental: as §1
5. Change in Blood Leptin Concentration and Food Intake after Oral Administration of Low-Molecular-Weight Compound
Blood leptin concentration after administration of physiological saline or administration of a low-molecular-weight compound were measured by using a mouse leptin ELISA kit (Morinaga Institute of Biological Science, Inc.). The daily food intake of each mouse was measured every day before each administration at 18:00.

[9] = test system: Leprb gene expression in HepG2 cells; experiment: Leprb gene expression in cultured hepatocyte HepG2 (qRT-PCR); type: cell-based; conditions: HepG2, 10^−9 to 10^−7M, 24 to 48 hours
Experimental: Identification of Low-Molecular-Weight Compound that Promotes Leprb Expression in Cultured Hepatocytes
Because Leprb gene expression is promoted on lowering of the action of Helz2 through binding of a low-molecular-weight compound, the low-molecular-weight compounds that bound to Helz2 were screened with use of increase of Leprb gene expression in cultured hepatocyte as an index. […] The hepatocytes were cultured at 37° C. for 24 to 48 hours, and Leprb gene expression therein was measured through a quantitative real time polymerase chain reaction (qRT-PCR, TaqMan Gene expression assays using LEPRB probes) method.

[10] = test system: obese mice fed high-fat diet; experiment: Daily variation of body weight with oral administration to obese mice; type: in vivo, mice (C57BL6J); set-up: key to Body weight: ↓: lowering or mitigating action; ↑: increasing action; →: no change
Experimental: as §1
4. Daily Variation of Body Weight with Oral Administration of Low-Molecular-Weight Compound
The body weight of each mouse with administration of physiological saline or administration of a low-molecular-weight compound was measured every day before each administration at 18:00.

[11] = test system: obese mice fed high-fat diet; experiment: Weights of fat and muscle after oral administration to obese mice; type: in vivo, mice (C57BL6J); conditions: 14-day oral administration
Experimental: as §1
12. Change in Weights of Fat and Muscle after Oral Administration of Low-Molecular-Weight Compound
The amounts of visceral fat, which evokes metabolic disorder, and muscle (right side) after administration of physiological saline or administration of a low-molecular-weight compound were measured.

[12] = in vivo; cited from earlier work
α2-adrenaline receptor = conditions: cited from earlier work
[13] = surface plasmon resonance, read-out: KD value for binding to and dissociating from Helz2
[14] = obese mice, 14-day oral administration, fasting, vs physiological saline
[15] = obese mice, 14-day oral administration, vs physiological saline
[16] = obese mice, fatty liver caused by high-fat diet
[17] = Table 1, summary of obese mouse results
[18] = KD value for binding to and dissociating from Helz2, surface plasmon resonance

## CN(C)C(=N)N=C(N)N [Metformin]
[1]; Table 1, comparator drugs
  Blood HDLc: →
  Blood LDLc: →
  Body weight: →
  Fatty liver: →
  Hyperglycemia: ↓
  Hypertension: →
  Insulin resistance: ↓
[1]; comparison, comparator drugs
  action on insulin resistance: ameliorate insulin resistance
  anti-fatty liver action: does not exhibit anti-fatty liver action
  anti-obesity action: does not exhibit anti-obesity action
  hyperglycemia-mitigating action: exhibits hyperglycemia-mitigating action

## NCCCNCCSP(=O)(O)O [amifostine trihydrate]
Helz2; [13]
  Kd: 1 to 490 nM

## CN(C)CCC(c1ccc(Br)cc1)c1ccccn1 (centres unmarked) [brompheniramine maleate]
Helz2; [13]
  Kd: 1 to 490 nM

## Clc1cccc(Cl)c1N=C1NCCN1 [clonidine hydrochloride]
Helz2; [13]
  Kd: ≥ 1000 nM

## COC(=O)Nc1nc2ccc(Sc3ccccc3)cc2[nH]1 [fenbendazole]
Helz2; [13]
  Kd: 1 to 490 nM

## N=C(N)N/N=C/c1c(Cl)cccc1Cl [guanabenz acetate]
[2]
  weight of kidney: No change
  weight of spleen: No change
[3]; [14]
  blood glucose levels: lowered the level of hyperglycemia to that in non-obese mice
  blood insulin levels: mitigated hyperinsulinemia
[3]; [15]
  HOMA-IR index (insulin resistance index): suppressed the HOMA-IR index
Helz2; [13]
  Kd: 1 to 490 nM and 2.3 nM
[4]; [14]
  blood CM-Tg concentration: not changed
  blood HDLc concentration: not changed
  blood LDLc concentration: significantly decreased
  blood VLDL-Tg concentration: not changed
Hepatic Leprb expression
  Hepatic Leprb gene expression: significantly increased
[5]
  weight of heart: significantly decreased
  weight of liver: significantly decreased
[6]
  HOMA-β index (pancreatic β-cell function): not changed
  pancreatic weight: not changed
[7]; [15]
  hepatic Chol content: significantly reduced
  hepatic Tg content: significantly reduced
[7]; [16]
  fat globule area (BODIPY staining-positive area in hepatocyte): significantly decreased
  fat globule cell size (size of BODIPY staining-positive cell): significantly decreased
[8]; obese mice after administration, vs non-obese mice (2.3±0.5 ng/mL)
  blood leptin concentration relative to non-obese mice: ≥ 10 fold
[8]; [15]
  blood leptin concentration: rather slightly decreased
  total food intake accumulation: no significant change
[8]; obese mice, except on day 3 from the beginning of administration, vs physiological saline
  daily food intake: no change in daily food intake
[9]
  Leprb expression in cultured hepatocyte (index of lowering of Helz2 action): Concentration-dependent increase in Leprb expression
[10]; obese mice, 0.32 mg/kg/day oral, after day 4 from the beginning of administration, vs physiological saline
  body weight gain: significantly reduced
[10]; obese mice, 0.32 mg/kg/day oral, on day 8 from the beginning of administration, maintained during administration
  Body weight: significant body weight reduction
[11]
  muscle weight of gastrocnemius muscle: not affected
  muscle weight of plantaris muscle: not affected
  muscle weight of soleus muscle: not affected
[11]; vs physiological saline
  amount of intestinal membrane fat: not changed
  amount of peritesticular fat: not changed
  amount of total visceral fat: not changed

## NC(N)=N/N=C/c1c(Cl)cccc1Cl [guanabenz, 2-{[(2,6-dichlorophenyl)methylidene]amino}guanidine]
[3]; [17]
  Hyperglycemia: ↓
  Insulin resistance: ↓
[3]; obese mouse results
  action on insulin resistance: ameliorates insulin resistance
  hyperglycemia-mitigating action: exhibits hyperglycemia-mitigating action
[4]; [17]
  Blood HDLc: →
  Blood LDLc: ↓
[4]; obese mouse results
  action on high LDL cholesterol: exhibits reducing action for high LDL cholesterol
[7]; [17]
  Fatty liver: ↓
[7]; obese mouse results
  anti-fatty liver action: with anti-fatty liver action
[12]
  absorptivity from a gastrointestinal tract: approximately 75%
  half-life in blood: 4.3 to 6.4 h
  site of metabolism: mostly metabolized in the liver
[10]; [17]
  Body weight: ↓
[10]; obese mouse results
  anti-obesity action: exhibits anti-obesity action without reduction of appetite
α2-adrenaline receptor
  Ki: 7 nM
[1]; Table 1, *based on clinical data
  Hypertension: ↓*

## CN(C)C(=O)C(CCN1CCC(O)(c2ccc(Cl)cc2)CC1)(c1ccccc1)c1ccccc1 [loperamide hydrochloride]
Helz2; [18]
  Kd: 1 to 490 nM

## Cc1nc2ccccn2c(=O)c1CCN1CCC(C(=O)c2ccc(F)cc2)CC1 [pirenperone]
Helz2; [13]
  Kd: 1 to 490 nM

## CC(NCCc1ccc(O)cc1)C(O)c1ccc(O)cc1 (centres unmarked) [ritodrine hydrochloride]
Helz2; [13]
  Kd: 1 to 490 nM

## CCN(C)C(=O)Oc1cccc([C@H](C)N(C)C)c1 [rivastigmine tartrate]
Helz2; [18]
  Kd: 1 to 490 nM

## CC(C)(C)NCC(O)c1ccc(O)c(CO)c1 (centres unmarked) [salbutamol]
Helz2; [13]
  Kd: 1 to 490 nM and 220 nM

## CC(C)CC(N(C)C)C1(c2ccc(Cl)cc2)CCC1 (centres unmarked) [sibutramine hydrochloride]
Helz2; [18]
  Kd: 1 to 490 nM

## CC1(C)[C@H](C(=O)O)N2C(=O)C[C@H]2S1(=O)=O [sulbactam]
Helz2; [13]
  Kd: 1 to 490 nM

## C[C@@H](c1ncncc1F)[C@](O)(Cn1cncn1)c1ccc(F)cc1F [voriconazole]
Helz2; [13]
  Kd: 1 to 490 nM
